From US9403832B2, “Pyrazolo[1,5-a]pyrimidine-based compounds, compositions comprising them, and methods of their use” (Lexicon Pharmaceuticals, Inc., priority 2012, dated 2016)

What was measured:
AAK1 [1] = target: T1, AAK1 (Homo sapiens, UniProt Q2M2I8); assay: HEK281 cell-based assay (CBA); conditions: HEK293F cells transfected with full length human AAK1 and AP2M1; phospho-mu2 Western blot; 3 hours incubation
T1 construct: NP_055726.2
Procedure: HEK293F cells were cultured in media containing DMEM (Gibco, cat. #11965), 10% FBS (SAFC Biosciences, cat. #12103C), 1× GPS (glutamine, penicillin and streptomycin). On day one, cells were plated on a 10 cm dish so that they are ˜80% confluent at time of transfection. Roughly 12 million cells were in a 10 cm dish at time of transfection. On day two, each dish was transfected with 48 ug DNA and 144 ul Lipofectamine 2000 (Invitrogen, cat. #11668-019). The DNA was comprised of a mixture (per 10 cm dish) containing 3 ug AAK1/HA/pIRES (full length human, NCBI accession no. NP_055726.2), 45 μg Flag/AP2MI/pcDNA (full length human), and 1.5 ml OPTI-MEM. The Lipofectamine 2000 is made up of a mixture (per 10 cm dish) containing 144 μl Lipofectamine 2000 and 1.5 ml OPTI-MEM. Each mixture was transferred to individual 15 ml tubes and incubated at RT for 5 minutes, and then the two mixes were combined and incubated at RT for 20 minutes.
Growth media was then aspirated from each 10 cm plate and replaced with 10 ml of DMEM+10% FBS (no GPS). Finally, 3 ml DNA/Lipofectamine mix was added to each 10 cm dish and mix gently followed by incubate of plate overnight at 37° C. and 5% CO2.
On day three, compounds were diluted in 100% DMSO at 1000× final concentration, followed by 3-fold serial dilutions for a total of 5 concentrations tested. Four compounds were tested per 10 cm dish. One ul of each compound dilution was then pipetted into a deep-well, 96-well plate, followed by addition of 500 μl DMEM+0.5% FBS into each well for a 2× final concentration of each compound. Cells were resuspended in a 10 cm dish by simple pipetting (HEK293 cells come off the plate that easy at this point) and then transferred to a 50 ml conical tube and pelleted by centrifugation at 1000 rpm for 5 min. Cell pellets were then resuspended in 2.75 ml DMEM+0.5% FBS per 10 cm dish and 100 μl of cell suspension transferred into each well of 96-well TC plate. Finally, 100 μl of 2× compound diluted in DMEM+0.5% FBS was then added into wells containing cell suspension for a 1× final concentration. Plates were then incubated at 37° C. and 5% CO2 for 3 hours followed by transferring of cell suspensions from each well into 12-tube PCR strips. The PCR strips were spun in a tip rack at 1000 rpm for 5 minutes to pellet cells and media was then removed by pipetting without disturbing the cell pellet.
To prepare for Western Blot analysis, cell pellets were resuspend in 40 ul 1× LDS-PAGE sample buffer (Invitrogen, cat.# NP0008)+2× Halt phophatase and protease inhibitor cocktail (Thermo Scientific, cat. #1861284), followed by sonicating each with microtip sonicator set at 5 for 8-10 seconds. Five ul of 10× NuPage Sample Reducing Agent (with 50 mM DTT) was to each sample followed by heat denaturing at 70 C for 10 min on PCR machine. A total of 10 μl per sample was loaded into each lane of a 4-20% Tris-Glycine Criterion 26-well gel (Biorad, cat. #345-0034) for the phospho-mu2 blot and 10 μl per lane in a 4-12% Bis-Tris (+MES buffer) NuPAGE 26-well gel (Invitrogen, cat.# WG1403BX10) for the mu2 blot. For controls, 2 ng of phospho-mu2 or 20 ng mu2/Flag proteins were loaded in the last well of each gel. After SDS-PAGE, samples on each gel were transferred to PVDF membrane using an iBlot and membranes were blocked for one hour in TBST+5% milk, followed by wash 3× for 5-10 min with TBST. Criterion gels were probed with rabbit anti-phospho-mu2 (1:5000; a rabbit polyclonal antibody produced by New England Peptide and affinity purified at Lexicon) in TBST+5% BSA, whereas, NuPAGE gels were probed with mouse anti-Flag (1:500; Sigma, cat.# F1804) in TBST+5% milk, and these primary antibodies were incubated overnight at 4° C. on a rocker.

AAK1 [2] = target: T1, AAK1; assay: P81 filter plate assay; format: biochemical; conditions: full-length human AAK1, Mu2 substrate, 33P-ATP
Procedure: Compounds were serially diluted into a Labcyte LDV plate (Labcyte, cat#LP-0200) using a Mutiprobe (PerkinElmer) and Biomek FX (Beckman Coulter) so that the highest compound concentration was at 96 μM. Compounds were then pinged (75 nL per well) into a Greiner 384-well reaction plate (Greiner, #781076) using an ECHO 550 Liquid Handler (Labcyte). A total of 12 μl reaction buffer (IMAP buffer containing Tween and DTT, from Molecular Devices) was then added to each well of columns 1 and 13 for the negative controls and 12 μl of 2× AAK1 (0.2 nM full-length human protein, NCBI accession no. NP_055726.2) was added to the remaining wells. Enzyme was then pre-incubated with compound for 10 minutes at RT. Reactions were initiated upon Minitrak (PerkinElmer) addition of 12 μl substrate mix containing 2× Mu2 (0.2 μM, full length human protein), 2× cold ATP (2 μM), and 1.3 μCi of hot ^33P-ATP. […] proceeded for one hour at RT. Meanwhile, Millipore 384-well P81 filter plates (Millipore, catalog #MZPHNOW10) were placed on a plate washer (Zoom ZW, from Titertek) and pre-wet with 50 μl 1% phosphoric acid. Kinase reactions were then stopped upon addition of 24 μl of 2% phosphoric acid to each well and the Minitrak was then used to transfer 40 μl from each well into the pre-wet Millipore 384-well P81 filter plates. Reaction mixtures were incubated for 10 minutes at RT in the P81 plates, followed by washing five times with 100 μl/well of 1% phosphoric acid using the Zoom filter washer. The bottom of each filter plate was sealed followed by addition of 20 μl Microscint 40 to each well, sealing the top of the plates with Flashplate cover, and then waiting one hour until reading on the TopCount (PerkinElmer).

T1 sequence (Q2M2I8 1-863 isoform Q2M2I8-2): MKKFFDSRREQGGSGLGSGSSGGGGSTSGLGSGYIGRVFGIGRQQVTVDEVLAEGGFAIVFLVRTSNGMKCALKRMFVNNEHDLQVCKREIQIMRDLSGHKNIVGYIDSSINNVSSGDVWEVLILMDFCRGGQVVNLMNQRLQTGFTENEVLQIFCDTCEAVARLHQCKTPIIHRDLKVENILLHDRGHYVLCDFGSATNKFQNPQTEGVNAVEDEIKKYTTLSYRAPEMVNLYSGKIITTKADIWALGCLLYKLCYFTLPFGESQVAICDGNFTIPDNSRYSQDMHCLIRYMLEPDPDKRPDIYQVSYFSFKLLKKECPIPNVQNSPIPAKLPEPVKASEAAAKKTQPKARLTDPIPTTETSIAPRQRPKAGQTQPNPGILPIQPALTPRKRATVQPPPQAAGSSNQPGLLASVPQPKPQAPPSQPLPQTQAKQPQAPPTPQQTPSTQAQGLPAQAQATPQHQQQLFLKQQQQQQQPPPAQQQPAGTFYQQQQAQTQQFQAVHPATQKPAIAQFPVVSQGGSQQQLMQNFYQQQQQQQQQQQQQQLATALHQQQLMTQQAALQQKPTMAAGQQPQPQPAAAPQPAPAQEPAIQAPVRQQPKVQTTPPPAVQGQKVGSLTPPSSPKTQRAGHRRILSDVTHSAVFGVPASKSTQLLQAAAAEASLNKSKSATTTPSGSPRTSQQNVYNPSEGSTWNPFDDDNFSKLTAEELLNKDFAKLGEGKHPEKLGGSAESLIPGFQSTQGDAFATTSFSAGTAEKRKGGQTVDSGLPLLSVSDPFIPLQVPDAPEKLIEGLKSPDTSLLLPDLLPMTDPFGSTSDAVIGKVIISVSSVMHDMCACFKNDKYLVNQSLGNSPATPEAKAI

IC50 (AAK1 [1]) [nM]	IC50 (AAK1 [2]) [nM]	SMILES
≤ 10		CC(C)COC(=O)N(C)CCNc1ccn2ncc(-c3ccc(C(N)=O)cc3)c2n1 [isobutyl (2-((3-(4-carbamoylphenyl)pyrazolo[1,5-a]pyrimidin-5-yl)amino)ethyl)(methyl)carbamate]
	≤ 1000	COc1cccnc1-c1cnn2ccc(N3CCN(C(=O)OC(C)C)CC3)nc12 [isopropyl 4-(3-(3-methoxypyridin-2-yl)pyrazolo[1,5-a]pyrimidin-5-yl)piperazine-1-carboxylate]
	≤ 10	COc1cnccc1-c1cnn2ccc(N3CCN(C(=O)OC(C)C)CC3)nc12 [isopropyl 4-(3-(3-methoxypyridin-4-yl)pyrazolo[1,5-a]pyrimidin-5-yl)piperazine-1-carboxylate]
	≤ 100	COC(=O)c1ccc(-c2cnn3ccc(N4CCN(C(=O)OC(C)C)CC4)nc23)cc1 [isopropyl 4-(3-(4-(methoxycarbonyl)phenyl)pyrazolo[1,5-a]pyrimidin-5-yl)piperazine-1-carboxylate]
	≤ 100	COc1ncncc1-c1cnn2ccc(N3CCN(C(=O)OC(C)C)CC3)nc12 [isopropyl 4-(3-(4-methoxypyrimidin-5-yl)pyrazolo[1,5-a]pyrimidin-5-yl)piperazine-1-carboxylate]
	≤ 10	COc1ncc(F)cc1-c1cnn2ccc(N3CCN(C(=O)OC(C)C)CC3)nc12 [isopropyl 4-(3-(5-fluoro-2-methoxypyridin-3-yl)pyrazolo[1,5-a]pyrimidin-5-yl)piperazine-1-carboxylate]
	≤ 10	CC(C)OC(=O)N1CCN(c2ccn3ncc(-c4cncc(F)c4)c3n2)CC1 [isopropyl 4-(3-(5-fluoropyridin-3-yl)pyrazolo[1,5-a]pyrimidin-5-yl)piperazine-1-carboxylate]
	≤ 100	CC(C)OC(=O)N1CCN(c2ccn3ncc(-c4ccc(F)nc4)c3n2)CC1 [isopropyl 4-(3-(6-fluoropyridin-3-yl)pyrazolo[1,5-a]pyrimidin-5-yl)piperazine-1-carboxylate]
	≤ 100	CC(C)OC(=O)N1CCN(c2ccn3ncc(-c4cccc5nccn45)c3n2)CC1 [isopropyl 4-(3-(imidazo[1,2-a]pyridin-5-yl)pyrazolo[1,5-a]pyrimidin-5-yl)piperazine-1-carboxylate]
	≤ 100	CC(C)OC(=O)N1CCN(c2ccn3ncc(-c4cccn5ccnc45)c3n2)CC1 [isopropyl 4-(3-(imidazo[1,2-a]pyridin-8-yl)pyrazolo[1,5-a]pyrimidin-5-yl)piperazine-1-carboxylate]
	≤ 1000	CC(C)OC(=O)N1CCN(c2ccn3ncc(-c4ccnnc4)c3n2)CC1 [isopropyl 4-(3-(pyridazin-4-yl)pyrazolo[1,5-a]pyrimidin-5-yl)piperazine-1-carboxylate]
	≤ 1000	CC(C)OC(=O)N1CCN(c2ccn3ncc(C(F)(F)F)c3n2)CC1 [isopropyl 4-(3-(trifluoromethyl)pyrazolo[1,5-a]pyrimidin-5-yl)piperazine-1-carboxylate]
	≤ 100	[2H]C1([2H])N(C(=O)OC(C)C)C([2H])([2H])C([2H])([2H])N(c2ccn3ncc(Br)c3n2)C1([2H])[2H] [isopropyl 4-(3-bromopyrazolo[1,5-a]pyrimidin-5-yl)-d8-piperazine-1-carboxylate]
	≤ 100	CC(C)OC(=O)N1CCN(c2ccn3ncc(Cl)c3n2)CC1 [isopropyl 4-(3-chloropyrazolo[1,5-a]pyrimidin-5-yl)piperazine-1-carboxylate]
	≤ 100	CC(C)OC(=O)N1CCN(c2ccn3ncc(I)c3n2)CC1 [isopropyl 4-(3-iodopyrazolo[1,5-a]pyrimidin-5-yl)piperazine-1-carboxylate]
	≤ 100	COc1ncc(C)cc1-c1cnn2ccc(N(C)CCN(C)C(=O)OC(C)C)nc12 [isopropyl (2-((3-(2-methoxy-5-methylpyridin-3-yl)pyrazolo[1,5-a]pyrimidin-5-yl)(methyl)amino)ethyl)(methyl)carbamate]
	≤ 100	COc1nc(C)ccc1-c1cnn2ccc(N(C)CCN(C)C(=O)OC(C)C)nc12 [isopropyl (2-((3-(2-methoxy-6-methylpyridin-3-yl)pyrazolo[1,5-a]pyrimidin-5-yl)(methyl)amino)ethyl)(methyl)carbamate]
	≤ 100	COc1ncccc1-c1cnn2ccc(N(C)CCN(C)C(=O)OC(C)C)nc12 [isopropyl (2-((3-(2-methoxypyridin-3-yl)pyrazolo[1,5-a]pyrimidin-5-yl)(methyl)amino)ethyl)(methyl)carbamate]
	≤ 100	COc1ncccc1-c1cnn2ccc(NCCNC(=O)OC(C)C)nc12 [isopropyl (2-((3-(2-methoxypyridin-3-yl)pyrazolo[1,5-a]pyrimidin-5-yl)amino)ethyl)carbamate]
	≤ 100	COc1ncccc1-c1cnn2ccc(OCCN(C)C(=O)OC(C)C)nc12 [isopropyl (2-((3-(2-methoxypyridin-3-yl)pyrazolo[1,5-a]pyrimidin-5-yl)oxy)ethyl)(methyl)carbamate]
	≤ 10	COc1ncc(F)cc1-c1cnn2ccc(N(C)CCN(C)C(=O)OC(C)C)nc12 [isopropyl (2-((3-(5-fluoro-2-methoxypyridin-3-yl)pyrazolo[1,5-a]pyrimidin-5-yl)(methyl)amino)ethyl)(methyl)carbamate]
	≤ 10	COc1ncc(F)cc1-c1cnn2ccc(N(C)CCCN(C)C(=O)OC(C)C)nc12 [isopropyl (3-((3-(5-fluoro-2-methoxypyridin-3-yl)pyrazolo[1,5-a]pyrimidin-5-yl)(methyl)amino)propyl)(methyl)carbamate]
	≤ 100	[2H]C1([2H])N(C(=O)OC(C)(C)C)C([2H])([2H])C([2H])([2H])N(c2ccn3ncc(Br)c3n2)C1([2H])[2H] [tert-butyl 4-(3-bromopyrazolo[1,5-a]pyrimidin-5-yl)-d8-piperazine-1-carboxylate]
	≤ 10	COc1ncccc1-c1cnn2ccc(OCCN(C)C(=O)OC(C)(C)C)nc12 [tert-butyl (2-((3-(2-methoxypyridin-3-yl)pyrazolo[1,5-a]pyrimidin-5-yl)oxy)ethyl)(methyl)carbamate]
